Results from patent US20260174860A1, “HYBRID COMPOUNDS OF SCLAREOL AND DOXORUBICIN, THEIR SYNTHESIS AND APPLICATION” (INSTITUTE FOR BIOLOGICAL RESEARCH "SINISA STANKOVIC" - …, priority 2023, published 2026).

Experiments:
[1] = system: glioblastoma cell lines U87, U87-TxR and U251; assay: DOX accumulation test, flow cytometry; type: cell-based, human; details: 20 μM and 50 μM SC with 20 μM DOX, 60 min
Protocol: (§1) • a) First, DOX accumulation test was performed on three glioblastoma cell lines, U87, U87-TxR, and U251. Cells were trypsinized and counted, and then 100,000 cells per sample were collected in a tube for flow cytometry and resuspended in 500 μL of culture medium. Cells were treated with 20 μM and 50 µM SC. Immediately after SC treatment, cells were treated with 20 μM DOX, and samples were incubated at 37° C. in a humid atmosphere with 5% CO2 for 60 min. After the accumulation period, the samples were centrifuged, washed twice with cold Phosphate Buffered Saline (PBS), and finally resuspended in 1 mL of PBS. The fluorescence of the samples was read on the FL2 (red channel) of a cytofluorimeter (Partec, Munster, Germany), and the results were analyzed with the software package Summit 4.3. • b) Secondly, DOX and rhodamine 123 accumulation test was performed on non-small cell lung carcinoma cell lines NCI-H460 and NCI-H460/R. Cells were trypsinized and counted, and then 100,000 cells per sample were collected in a tube for flow cytometry and resuspended in 500 μl of culture medium. Cells were treated with 50 μM SC. Immediately after treatment, 5 μM Rho123 was added to one group of samples and the other 20 μM DOX. […] The samples were analyzed using a flow cytometer, reading for rhodamine 123 on FL1 (green channel) and DOX on FL2 (red channel). […]

[2] = system: P-glycoprotein-deficient NCI-H460 cells; assay: DOX and rhodamine 123 accumulation test, flow cytometry; type: cell-based, human; details: 50 μM SC
Protocol: as §1

[3] = Zetasizer measurement of size, polydispersity and zeta potential; type: physicochemical; details: 25° C., diluted 100 times with ultrapure water, mean of three
Protocol: The Malvern Zetasizer Nano ZS (Malvern Instruments, United Kingdom) was used to analyze the physico-chemical stability characteristics of conjugates. The measurement range was from 0.6 nm up to […]. The mean size of conjugates, the polydispersity index (PDI) and zeta potential were measured. All measurements were taken at a temperature of 25° C. and each sample was diluted 100 times with ultrapure water. The measurements were repeated three times, and the results were presented as the mean value. PDI is a parameter used to define the size range of particles. The term “polydispersity” (or “dispersity” as recommended by IUPAC) describes the degree of non-uniformity of a size distribution of particles. Zeta potential represents the surface charge of nanoparticles and indicates their long-term stability.

| Molecule | accumulation of DOX [1] | DOX or rhodamine 123 accumulation [2] | Z-Average [3] [nm·days] |
| --- | --- | --- | --- |
| C=C[C@](C)(O)CC[C@@H]1[C@@]2(C)CCCC(C)(C)[C@@H]2CC[C@@]1(C)O [SC, sclareol] | increase the accumulation of DOX | did not show any increase |  |
| N1-((25,3S,4S,6R)-3-hydroxy-2-methyl-6-(((1S,3S)-3,5,12-trihydroxy-3-(2-hydroxyacetyl)-10-methoxy-6,11-dioxo-1,2,3,4,6,11-hexahydrotetracen-1-yl)oxy)tetrahydro-2H-pyran-4-yl)-N4-(3-((4-((R,E)-3-hydroxy-5-((1R,2R,4aS,8aS)-2-hydroxy-2,5,5,8a-tetramethyldecahydronaphthalen-1-yl)-3-methylpent-1-en-1-yl)benzyl)amino)propyl) succinamide [CON1] |  |  | 189.4 ± 9.7 |
